How the values were obtained:
[1] = test system: Human adenocarcinoma cell line LoVo; assay: Cell Based Screen for Inhibitors of Raf Kinase, LoVo cells; conditions: four days, SRB
Procedure: (§1) • Cell Lines: Human adenocarcinoma cell line LoVo which is known to be growth inhibited by low nM concentrations of a reference standard inhibitor of Ras and human adenocarcinoma cell line CaCo-2, which is known to be growth resistant to the same reference compound. • Cell Media: RPMI 1640 with 10% Fetal Bovine Serum supplemented with L-glutamine and Pennicilin/Streptomycin. • Compounds: Supplied usually as a 10 mM stock in 100% DMSO. • Normal Saline: 150 mM NaCl • Trichloroacetic Acid (TCA): 50% (w/v) in water • Sulforhodamine B (SRB): 0.4% (w/v) in 1% Acetic Acid • Tris Base: 10 mM in water
(§2) Cells are plated at 2000 cells per well for cell line LoVo and 1500 cells for cell line CaCo-2 in 96 well plates. Cells are plated in media (200 µl) and allowed to adhere overnight at 37° C. At 24 hours post plating, compounds are added directly at a volume of 0.5 µl. For the qualitative screen (compounds screened at 25 µM) compound is added directly to cells. For the quantitative screen, compound is first diluted in DMSO to generate concentrations of compound or reference standard of: 1, 5, 10 and 25 µM. It is advisable to make the dilutions in an identical 96 well plate so that compounds may be added using a multichannel micropipettor set at 0.5 µl. The cells are then incubated for four days after which the media is removed using a 12 well manifold by first tipping the plate forward at a 45 degree angle and then inserting the manifold in an upright orientation to prevent the tips of the manifold from disturbing cells at the bottom of the plate. 200 µl of normal saline is then added to each well using an 8 well multichannel pipettor, followed by the careful addition of 50 µl of 50% TCA. The plates are then incubated for 2 hours at 4 ° C, after which the supernatant is removed using the same technique as above and the plated washed twice with 200 µl water. The plates are then air dried and 50 µl of SRB stock solution is carefully added so that the entire bottom of each well is covered. This again may be used using an 8 well multichannel pipettor. The SRB is incubated with fixed cells for 15 minutes at room temperature after which the SRB is removed with the manifold as described above and the plates washed twice with 350 µl of 1% acetic acid per well each time.The plates are then air dried after which the bound SRB is released from protein by the addition of 200 µl of Tris base. Resolubilizing the SRB is aided by placing the plates on a rotator for 15-30 minutes. The absorbance of each well is determined at 550 or 562 nm using a microtiter plate reader.
(§3) Each compound or dilution thereof is performed in triplicate. Outliers are identified by visual inspection of the data. Each plate should have a "0" control (vehicle only).
(§4) Quantitative Assay: A standard curve is constructed by plotting the concentration of compound against the average absorbance calculated at that concentration. A curve is plotted and the concentration at which the curve passes through the 50% the absorbance mark seen in the "0" control well is the IC50 calculated for that compound. […]

[2] = test system: human adenocarcinoma cell line CaCo-2; assay: Cell Based Screen for Inhibitors of Raf Kinase, CaCo-2 cells; conditions: CaCo-2, four days, SRB
Procedure: as §1, §2, §3, §4

Row | IC50 ([1]; Homo sapiens, 96 h) | IC50 [1] | IC50 [2] | IC50 ([2]; Homo sapiens, Caco-2, 96 h) | SMILES
1 | < 0.005 µM | 0.0029 µM | 0.55 µM | 1.1 µM | CN1CCN(c2ccc(-c3ccc4c(Nc5ccc(Sc6nccn6C)c(Cl)c5)c(C#N)cnc4c3)cn2)CC1 [Example 196, 4-{3-chloro-4-[(1-methyl-1H-imidazol-2-yl)sulfanyl]anilino}-7-[6-(4-methyl-1-piperazinyl)-3-pyridinyl]-3-quinolinecarbonitrile]
2 | 0.0041 µM | – | – | 0.62 µM | Cn1ccnc1Sc1ccc(Nc2c(C#N)cnc3cc(-c4ccc(CN5CCCCC5)s4)ccc23)cc1Cl [Example 160, 4-{3-chloro-4-[(1-methyl-1H-imidazol-2-yl)sulfanyl]anilino}-7-[5-(1-piperidinylmethyl)-2-thienyl]-3-quinolinecarbonitrile]
3 | < 0.005 µM | 0.006 µM | – | > 10 µM | Cn1ccnc1Sc1ccc(Nc2c(C#N)cnc3cc(-c4ccc(CN5CCOCC5)c(CN5CCOCC5)c4)ccc23)cc1Cl [Example 35, 7-[3,4-Bis(4-morpholinylmethyl)phenyl]-4-[3-chloro-4-[(1-methyl-1H-imidazol-2-yl)sulfanyl]anilino}-3-quinolinecarbonitrile]
4 | 0.0068 µM | – | – | 0.98 µM | Cn1ccnc1Sc1ccc(Nc2c(C#N)cnc3cc(-c4ccc(CN5CCOCC5)nc4)ccc23)cc1Cl [Example 109, 4-({3-Chloro-4-[(1-methyl-1H-imidazol-2-yl)sulfanyl]phenyl}amino)-7-[6-(4-morpholinylmethyl)-3-pyridinyl]-3-quinolinecarbonitrile]
5 | 0.01 µM | – | – | > 1 µM | Cn1ccnc1Sc1ccc(Nc2c(C#N)cnc3cc(-c4ccc(N5CCSCC5)nc4)ccc23)cc1Cl [Example 110, 4-({3-Chloro-4-[(1-methyl-1H-imidazol-2-yl)sulfanyl]phenyl}amino)-7-[6-(4-thiomorpholinyl)-3-pyridinyl]-3-quinolinecarbonitrile]
6 | 0.0097 µM | – | – | > 1 µM | Cn1ccnc1Sc1ccc(Nc2c(C#N)cnc3cc(-c4cc(CN5CCOCC5)ccn4)ccc23)cc1Cl [Example 203, 4-({3-chloro-4-[(1-methyl-1H-imidazol-2-yl)sulfanyl]phenyl}amino)-7-[4-(4-morpholinylmethyl)-2-pyridinyl]-3-quinolinecarbonitrile]
7 | 0.0026 µM | – | – | 0.39 µM | CCN1CCN(c2ccc(-c3ccc4c(Nc5ccc(Sc6nccn6C)c(Cl)c5)c(C#N)cnc4c3)nc2)CC1 [Example 108, 4-({3-Chloro-4-[(1-methyl-1H-imidazol-2-yl)sulfanyl]phenyl}amino)-7-[5-(4-ethyl-1-piperazinyl)-2-pyridinyl]-3-quinolinecarbonitrile]
8 | 0.05 µM | – | 5 µM | > 10 µM | Cn1ccnc1Sc1ccc(Nc2c(C#N)cnc3cc(-c4ccc(C=O)cn4)ccc23)cc1Cl [Example 170, 4-{3-chloro-4-[(1-methyl-1H-imidazol-2-yl)sulfanyl]anilino}-7-(5-formyl-2-pyridinyl)-3-quinolinecarbonitrile]
9 | 0.0084 µM | – | – | > 1 µM | CCN1CCN(Cc2cccc(-c3ccc4c(Nc5ccc(Sc6nccn6C)c(Cl)c5)c(C#N)cnc4c3)n2)CC1 [Example 201, 4-{3-chloro-4-[(1-methyl-1H-imidazol-2-yl)sulfanyl]anilino}-7-{6-[(4-ethyl-1-piperazinyl)methyl]-2-pyridinyl}-3-quinolinecarbonitrile]
10 | 0.075 µM | – | – | > 1 µM | COc1cc2c(Nc3ccc(Sc4nccn4C)c(Cl)c3)c(C#N)cnc2cc1-c1csc(CN2CCN(C)CC2)c1 [Example 126, 4-{3-Chloro-4-[(1-methyl-1H-imidazol-2-yl)sulfanyl]anilino}-6-methoxy-7-{5-[(4-methyl-1-piperazinyl)methyl]-3-thienyl}-3-quinolinecarbonitrile]
11 | 0.004 µM | – | – | 0.78 µM | COCCN(C)c1ccc(-c2ccc3c(Nc4ccc(Sc5nccn5C)c(Cl)c4)c(C#N)cnc3c2)cn1 [Example 212, 4-({3-chloro-4-[(1-methyl-1H-imidazol-2-yl)sulfanyl]phenyl}amino)-7-{6-[(2-methoxyethyl)(methyl)amino]-3-pyridinyl}-3-quinolinecarbonitrile]
